In test [1] the target is T1, BTK enzyme (Homo sapiens, UniProt Q06187).
T1 construct: purchased Upstate 14-552
As to the kind of experiment: In vitro BTK kinase assay: BTK-POLYGAT-LS assay. Type of test: biochemical. As to conditions: ATP 10 μM, read-out: IC50 (10uMATP). In short, it runs like this:
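Human BTK activity was measured with final 10 μM ATP and 100 nM polyGAT substrate in pH 7.5 Tris buffer with 10 mM MgCl2, DTT, Triton X-100 and casein.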

Test [2] addresses BTK (phospho-BTK) in human whole blood (Homo sapiens, UniProt Q06187). Description: In vitro PD assay in human whole blood (pBTK assay).

Like-named read-outs stand apart in the source and are kept apart here.

In patent publication US10759783B2, “Biaryl inhibitors of Bruton'S tyrosine kinase” (BIOGEN MA INC., priority 2013, dated 2020) one finds IC50 data, which are given here for 25 molecules.

T1 sequence (Q06187 whole entry): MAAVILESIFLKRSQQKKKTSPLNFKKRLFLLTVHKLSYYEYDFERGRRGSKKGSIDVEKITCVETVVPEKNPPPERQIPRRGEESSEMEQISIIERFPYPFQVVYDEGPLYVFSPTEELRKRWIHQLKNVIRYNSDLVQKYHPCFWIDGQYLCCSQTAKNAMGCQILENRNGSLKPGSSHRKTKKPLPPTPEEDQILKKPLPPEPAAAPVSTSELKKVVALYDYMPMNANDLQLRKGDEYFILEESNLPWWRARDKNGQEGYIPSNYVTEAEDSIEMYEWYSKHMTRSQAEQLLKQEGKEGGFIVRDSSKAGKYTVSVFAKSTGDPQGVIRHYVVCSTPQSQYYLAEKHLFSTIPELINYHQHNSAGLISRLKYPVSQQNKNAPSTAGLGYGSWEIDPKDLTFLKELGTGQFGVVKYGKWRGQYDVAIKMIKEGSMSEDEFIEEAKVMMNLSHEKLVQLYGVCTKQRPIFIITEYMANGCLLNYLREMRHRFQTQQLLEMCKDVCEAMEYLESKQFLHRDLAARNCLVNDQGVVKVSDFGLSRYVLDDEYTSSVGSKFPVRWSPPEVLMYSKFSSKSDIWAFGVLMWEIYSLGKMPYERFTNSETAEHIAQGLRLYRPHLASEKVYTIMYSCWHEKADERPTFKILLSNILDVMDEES
Chain of BTK (phospho-BTK) in human whole blood (Q06187 whole entry): as above

The IC50 is the concentration that inhibits the measured activity by half. For the molecule `CC(C)OC1CN(C(=O)NCc2ccc(-c3ccnc(Nc4cnn(CCO)c4)n3)cc2C(F)(F)F)C1` [Example I-301, N-[[4-[2-[[1-(2-hydroxyethyl)pyrazol-4-yl]amino]pyrimidin-4-yl]-2-(trifluoromethyl)phenyl]methyl]-3-isopropoxy-azetidine-1-carboxamide], the results for the half-maximal inhibitory concentration (IC50) in test [1] and in test [2] were less than 10 nM and less than 500 nM, respectively.
Regarding `Cc1cc(-c2cc(Nc3cc4n(n3)CCNC4)ncn2)ccc1CNC(=O)c1cnc(C(C)(C)C)s1` [Example I-270, 2-tert-butyl-N-[[2-methyl-4-[6-(4,5,6,7-tetrahydropyrazolo[1,5-a]pyrazin-2-ylamino)pyrimidin-4-yl]phenyl]methyl]thiazole-5-carboxamide], the results for the IC50 in test [1] and in test [2] were less than 10 nM and less than 500 nM, respectively.
Consider `Cc1cc(-c2ccnc(Nc3cnn(C)c3)n2)ccc1CNC(=O)N1CC[C@@H](C(C)(C)C)C1` [Example I-254], for which the IC50 in test [1] was less than 10 nM; in test [2], less than 500 nM.
In the case of `CC(C)OC1CN(C(=O)NCc2ccc(-c3ccnc(Nc4cnn([C@H]5CCOC5)c4)n3)cc2C(F)(F)F)C1` [Example I-313, 3-isopropoxy-N[[4-[2-[[1-[(3S)-tetrahydrofuran-3-yl]pyrazol-4-yl]amino]pyrimidin-4-yl]-2-(trifluoromethyl)phenyl]methyl]azetidine-1-carboxamide], the IC50 in test [1] is less than 10 nM; in test [2], less than 500 nM.
`Cn1cc(Nc2nccc(-c3ccc4c(c3)CCCCC4NC(=O)N3CC(OC(C)(C)C)C3)n2)cn1` (centres unmarked) [Example I-163, 3-(tert-butoxy)-N-(2-(2-((1-methyl-H-pyrazol-4-yl)amino)pyrimidin-4-yl)-6,7,8,9-tetrahydro-5H-benzo[7]annulen-5-yl)azetidine-1-carboxamide]: the IC50 in test [1] is less than 10 nM; in test [2] it was less than 500 nM.
`Cc1cc(-c2ccnc(Nc3cnn(C4CCN(C)CC4)c3)n2)ccc1CN1Cc2nc(C(C)(C)C)sc2C1=O` [Example I-289, 2-tert-butyl-5-[[2-methyl-4-[2-[[1-(1-methyl-4-piperidyl)pyrazol-4-yl]amino]pyrimidin-4-yl]phenyl]methyl]-4H-pyrrolo[3,4-d]thiazol-6-one]: the figures for the IC50 in test [1] and in test [2] were less than 10 nM and less than 500 nM, respectively.
`Cc1cc(-c2ccnc(Nc3cnn(C4CCN(C)CC4)c3)n2)ccc1CNC(=O)c1cnn(C(C)(C)C)c1` [Example I-197, 1-(tert-butyl)-N-(2-methyl-4-(2-((1-(1-methylpiperidin-4-yl)-1H-pyrazol-4-yl)amino)pyrimidin-4-yl)benzyl)-1H-pyrazole-4-carboxamide]: the figures for the IC50 in test [1] and in test [2] were less than 10 nM and less than 500 nM, respectively.
As for `Cc1cc(-c2cc(Nc3cc4n(n3)CCOC4)ncn2)ccc1CNC(=O)N1CC(OC(C)(C)C)C1` [Example I-287, 3-tert-butoxy-N-[[4-[6-(6,7-dihydro-4H-pyrazolo[5,1-c][1,4]oxazin-2-ylamino)pyrimidin-4-yl]-2-methyl-phenyl]methyl]azetidine-1-carboxamide], the IC50 is less than 10 nM in test [1] and less than 500 nM in test [2].
As for `Cc1cc(-c2ccnc(Nc3cnn(C(C)C)c3)n2)ccc1CNC(=O)c1cnc(C(C)(C)C)s1` [Example I-41, 2-(tert-butyl)-N-(4-(2-((1-isopropyl-1H-pyrazol-4-yl)amino)pyrimidin-4-yl)-2-methylbenzyl)thiazole-5-carboxamide], the IC50 in test [1] is less than 10 nM; in test [2], less than 500 nM.
With `CC(C)(C)OC1CN(C(=O)NC2CCCCc3cc(-c4cc(Nc5cc6n(n5)CCOC6)ncn4)ccc32)C1` (centres unmarked) [Example I-332, 3-tert-butoxy-N-[2-[6-(6,7-dihydro-4H-pyrazolo[5,1-c][1,4]oxazin-2-ylamino)pyrimidin-4-yl]-6,7,8,9-tetrahydro-5H-benzo[7]annulen-5-yl]azetidine-1-carboxamide], the IC50 in test [1] is less than 10 nM; in test [2] it was less than 500 nM.
As to `Cc1cc(-c2cc(Nc3cc4n(n3)CCC4)ncn2)ccc1CNC(=O)c1cnn(C(C)(C)C)c1` [Example I-193, 1-(tert-butyl)-N-(4-(6-((5,6-dihydro-4H-pyrrolo[1,2-b]pyrazol-2-yl)amino)pyrimidin-4-yl)-2-methylbenzyl)-1H-pyrazole-4-carboxamide], the values for the IC50 in test [1] and in test [2] were less than 10 nM and less than 500 nM, respectively.
On to `Cc1cc(-c2ccnc(Nc3cnn(C(C)C)c3)n2)ccc1CNC(=O)N1CC(OC(C)(C)C)C1` [Example I-306, 3-tert-butoxy-N-[[4-[2-[(1-isopropylpyrazol-4-yl)amino]pyrimidin-4-yl]-2-methyl-phenyl]methyl]azetidine-1-carboxamide], for which the half-maximal inhibitory concentration (IC50) in test [1] is less than 10 nM; in test [2] (read-out: pBTK IC50, human whole blood, 37° C. for 30 min), less than 500 nM.
In the case of `CCCC1CN(C(=O)NCc2ccc(-c3ccnc(Nc4cnn(C)c4)n3)cc2C)C1` [Example I-263, N-[[2-methyl-4-[2-[(1-methylpyrazol-4-yl)amino]pyrimidin-4-yl]phenyl]methyl]-3-propyl-azetidine-1-carboxamide], the concentration for half-maximal inhibition (IC50) in test [1] was less than 10 nM; in test [2] it was less than 500 nM.
Turning to `CC(C)(C)OC1CN(C(=O)NC2CCCCc3cc(-c4ccnc(Nc5cnn([C@H]6CCOC6)c5)n4)ccc32)C1` (stereo partly drawn) [Example I-334, 3-tert-butoxy-N-[2-[2-[[1-[(3S)-tetrahydrofuran-3-yl]pyrazol-4-yl]amino]pyrimidin-4-yl]-6,7,8,9-tetrahydro-5H-benzo[7]annulen-5-yl]azetidine-1-carboxamide], the IC50 in test [1] is less than 10 nM; in test [2], less than 500 nM.
Take `CNC(=O)C(C)(C)n1cc(Nc2nccc(-c3ccc(CNC(=O)N4CC(OC(C)C)C4)c(C)c3)n2)cn1` [Example I-212, 3-isopropoxy-N-(2-methyl-4-(2-((1-(2-methyl-1-(methylamino)-1-oxopropan-2-yl)-1H-pyrazol-4-yl)amino)pyrimidin-4-yl)benzyl)azetidine-1-carboxamide]: the IC50 is less than 10 nM in test [1] and less than 500 nM in test [2].
On to `CC(C)C1CCN(C(=O)NC2CCCCc3cc(-c4ccnc(Nc5cnn(C6CCOCC6)c5)n4)ccc32)C1` (centres unmarked) [Example I-342, 3-isopropyl-N-[2-[2-[(1-tetrahydropyran-4-ylpyrazol-4-yl)amino]pyrimidin-4-yl]-6,7,8,9-tetrahydro-5H-benzo[7]annulen-5-yl]pyrrolidine-1-carboxamide], for which the values for the IC50 in test [1] and in test [2] were less than 10 nM and less than 500 nM, respectively.
For the molecule `CCn1cc(Nc2nccc(-c3ccc(CNC(=O)N4CCC(C(C)(C)C)C4)c(C)c3)n2)cn1` (centres unmarked) [Example I-305, 3-tert-butyl-N-[[4-[2-[(1-ethylpyrazol-4-yl)amino]pyrimidin-4-yl]-2-methyl-phenyl]methyl]pyrrolidine-1-carboxamide], the IC50 in test [1] is less than 10 nM; in test [2], less than 500 nM.
As to `Cc1cc(-c2ccnc(Nc3cnn(C)c3)n2)ccc1CNC(=O)c1cc2c(s1)CCOC2` [Example I-3, N-(2-methyl-4-(2-((1-methyl-1H-pyrazol-4-yl)amino)pyrimidin-4-yl)benzyl)-6,7-dihydro-4H-thieno[3,2-c]pyran-2-carboxamide], the values for the IC50 in test [1] and in test [2] were less than 10 nM and 1500 to 10000 nM, respectively.
Regarding `CC(C)OC1CN(C(=O)NCc2ccc(-c3ccnc(Nc4cnn(C(C)C)c4)n3)cc2C(F)(F)F)C1` [Example I-299, 3-isopropoxy-N-[[4-[2-[(1-isopropylpyrazol-4-yl)amino]pyrimidin-4-yl]-2-(trifluoromethyl)phenyl]methyl]azetidine-1-carboxamide], the IC50 in test [1] is less than 10 nM; in test [2], less than 500 nM.
Take `CC(C)(C)C1CCN(C(=O)NC2CCCCc3cc(-c4ccnc(Nc5cnn(CCO)c5)n4)ccc32)C1` (centres unmarked) [Example I-185, 3-(tert-butyl)-N-(2-(2-((1-(2-hydroxyethyl)-1H-pyrazol-4-yl)amino)pyrimidin-4-yl)-6,7,8,9-tetrahydro-5H-benzo[7]annulen-5-yl)pyrrolidine-1-carboxamide]: the figures for the IC50 in test [1] and in test [2] were less than 10 nM and less than 500 nM, respectively.
As for `Cc1cc(-c2cc(Nc3ccc(N4CCN(C)CC4)cn3)ncn2)ccc1CNC(=O)c1ccn(C(C)(C)C)n1` [Example I-226, 1-(tert-butyl)-N-(2-methyl-4-(6-((5-(4-methylpiperazin-1-yl)pyridin-2-yl)amino)pyrimidin-4-yl)benzyl)-1H-pyrazole-3-carboxamide], the IC50 was less than 10 nM in test [1] and less than 500 nM in test [2].
`Cc1cc(-c2cc(Nc3cc4n(n3)CC(C)N(C)C4)ncn2)ccc1CNC(=O)c1cnn(C(C)(C)C)c1` (centres unmarked) [Example I-280, 1-tert-butyl-N-[[4-[6-[(5,6-dimethyl-6,7-dihydro-4H-pyrazolo[1,5-a]pyrazin-2-yl)amino]pyrimidin-4-yl]-2-methyl-phenyl]methyl]pyrazole-4-carboxamide]: the half-inhibitory concentration (IC50) in test [1] was less than 10 nM; in test [2] it was less than 500 nM.
As for `Cc1cc(-c2ccnc(Nc3cn(C)nc3C)n2)ccc1CNC(=O)c1cnc(C(C)(C)C)s1` [Example I-51, 2-(tert-butyl)-N-(4-(2-((1,3-dimethyl-1H-pyrazol-4-yl)amino)pyrimidin-4-yl)-2-methylbenzyl)thiazole-5-carboxamide], the values for the IC50 in test [1] and in test [2] were less than 10 nM and 500 to 1500 nM, respectively.
With `CC(C)(C)C1CCN(C(=O)NCc2ccc(-c3ccnc(Nc4cnn(C5CCNC5)c4)n3)cc2C(F)(F)F)C1` [Example I-318, 3-tert-butyl-N-[8 4-[2-[[1-[(3R)-pyrrolidin-3-yl]pyrazol-4-yl]amino]pyrimidin-4-yl]-2-(trifluoromethyl)phenyl]methyl]pyrrolidine-1-carboxamide], the IC50 in test [1] was less than 10 nM; in test [2], less than 500 nM.
For the molecule `CC(C)OC1CN(C(=O)NC2CCCCc3cc(-c4ccnc(Nc5cnn(C6CCOCC6)c5)n4)ccc32)C1` (centres unmarked) [Example I-172, 3-isopropoxy-N-(2-(2-((1-(tetrahydro-2H-pyran-4-yl)-1H-pyrazol-4-yl)amino)pyrimidin-4-yl)-6,7,8,9-tetrahydro-5H-benzo[7]annulen-5-yl)azetidine-1-carboxamide], the values for the IC50 in test [1] and in test [2] were less than 10 nM and less than 500 nM, respectively.
